Reference: US5707615A, “Method of treating HIV infections with anti-viral formulations” (Merrell Pharmaceuticals Inc., priority 1997, dated 1998)

Tests used:
[1] = system: viral protein which is responsible for cell recognition; settings: cited from earlier work
[2] = system: HIV-I (GB8); assay: Pretreatment of JM cells and block of HIV-I (GB8) infection (Example IV); settings: pretreated overnight at 20 μg/mL
Experimental: JM cells were pretreated overnight at 37° C. with different compounds at 20 μg/mL or left untreated. The cells were washed 3 times in RPMI medium and then infected with HIV-I (GB8) for 2 hours at room temperature. The cells were again washed 3 times in RPMI medium and resuspended in fresh medium prior to being distributed into duplicate wells and incubated at 37° C. After 2 days syncytia were scored and the cell free supernatant fluid harvested and assayed for P24 viral core antigen using the Coulter™ HIV antigen assay.

[3] = system: HIV-I, GB8; assay: Ability to prevent syncytia formation and expression of P24 viral core antigen using JM cells and GB8 virus strain (Example I); assay type: cell-based; settings: for P24 % CONTROL: 4320 min
Experimental: The virus was first incubated with an oligomer for 15 minutes and then the cells were added. After 2 hours adsorption, the virus innoculum was removed and the cells were washed three times to remove traces of input virus. Antiviral activity was determined after 3 days incubation by plotting the mean number of syncytia found in quadruple cultures against log10 concentration of anionic polymer or of other test compounds. The potency of an oligomer was also measured by assaying viral core antigen (P24 test-Abbott) in the supernatant fluid. Heparin, dextran sulfate, rs CD4, ATZ and/or ddC data, when included in any of the following Tables, are provided as positive controls.

[4] = in vivo; cited from earlier work
[5] = system: MT4 cells; assay: Toxicity to MT4 cells (TD50, Table IV, MTT); assay type: cell-based; settings: human, mt4 cells, 168 h
Experimental: (§1) Various oligomers were dissolved in RPMI and were then assayed for anti-HIV activity by making doubling dilutions of the solutions across a 96 well microtitre plate. To each well were then added 5×10^4 cells and 100 TCID50 of virus and the plates incubated at 37° C. for 7 days. MTT was added to each well and the plates incubated for a further 2 hours. The blue formazan crystals were dissolved using acidic isopropanol, and the absorbance measured at 540 nm.

[6] = system: GB8 virus in JM cells; assay: Virus infection of JM cells with GB8 in the presence of test compounds: syncytia and P24 (Example II); settings: for SYNCYTIA % / P24 %: % of control; for SYNCYTIA %: 2880 min; for P24 %: 5760 min
[7] = system: HIV strain RF; assay: Ability to prevent virus-induced cell death using MT4 cells and strain RF (Example III); assay type: cell-based; settings: MT4 cells, 7 days, MTT
Experimental: as §1

For Heparin [reference compound], the “inhibition of host cell infection” value [1] is given as “limited inhibition of host cell infection”, the P24 [2] is given as 29090 pg/mL and the “MEAN SYNCYTIA” value ([2]; 2 days) is given as 136. The P24 % ([2]; % of control, 2880 min) was 103%, the SYNCYTIA % ([2]; % of control, 2880 min) was 114% and the P24 ([3]; 0.6 μg/mL) was 44570 pg/mL. The “P24 % CONTROL” value ([3]; 0.6 μg/mL) was 0.1%, the P24 ([3]; 2.5 μg/mL) was 25775 pg/mL and the “P24 % CONTROL” value ([3]; 2.5 μg/mL) was < 0.1%. For the same substance, the P24 ([3]; 5.0 μg/mL) was 2500 pg/mL, the “P24 % CONTROL” value ([3]; 5.0 μg/mL) was < 0.1% and the SYNCYTIA ([3]; 5.0 μg/mL, after 3 days) was 0. The side effects [4] was “hemorrhage and increased clot formation time as well as thrombocytopenia”, the TD50 [5] was > 100 µg/mL and the “SYNCYTIA (2 DAYS) MEAN” value ([6]; Table II, 0.01 μg/mL) was 38. For the same substance, the SYNCYTIA % ([6]; Table II, 0.01 μg/mL) was 90%, the “SYNCYTIA (2 DAYS) MEAN” value ([6]; Table II, 0.03 μg/mL) was 29 and the SYNCYTIA % ([6]; Table II, 0.03 μg/mL) was 69%. For the same substance, the “SYNCYTIA (2 DAYS) MEAN” value ([6]; Table II, 0.1 μg/mL) was 24, the SYNCYTIA % ([6]; Table II, 0.1 μg/mL) was 57% and the P24 ([6]; Table II, 0.3 μg/mL) was 4.1 × 10^4 units/mL. The “SYNCYTIA (2 DAYS) MEAN” value ([6]; Table II, 0.3 μg/mL) was 22, the SYNCYTIA % ([6]; Table II, 0.3 μg/mL) was 52% and the P24 % ([6]; Table II, 0.3 μg/mL) was 11%. For the same substance, the “SYNCYTIA (2 DAYS) MEAN” value ([6]; Table II, 1 μg/mL) was 2, the SYNCYTIA % ([6]; Table II, 1 μg/mL) was 5% and the P24 % ([6]; Table II, 1 μg/mL) was 8%. For the same substance, the P24 ([6]; Table II, 3 μg/mL) was 1.7 × 10^4 units/mL, the “SYNCYTIA (2 DAYS) MEAN” value ([6]; Table II, 3 μg/mL) was 0 and the SYNCYTIA % ([6]; Table II, 3 μg/mL) was 0%. The P24 % ([6]; Table II, 3 μg/mL) was 5%, the “SYNCYTIA (2 DAYS) MEAN” value ([6]; Table II, 10 μg/mL) was 0 and the SYNCYTIA % ([6]; Table II, 10 μg/mL) was 0%. The P24 % ([6]; Table II, 10 μg/mL) was 3%, the P24 ([6]; Table III, 1 μg/mL) was 211000 pg/mL and the “SYNCYTIA MEAN” value ([6]; Table III, 1 μg/mL) was 13. The SYNCYTIA % ([6]; Table III, 1 μg/mL) was 19%, the P24 % ([6]; Table III, 1 μg/mL) was 63% and the P24 ([6]; Table III, 10 μg/mL) was 70700 pg/mL. For the same substance, the “SYNCYTIA MEAN” value ([6]; Table III, 10 μg/mL) was 0, the P24 % ([6]; Table III, 10 μg/mL) was 21% and the P24 ([6]; Table III, 100 μg/mL) was 989 pg/mL. The “SYNCYTIA MEAN” value ([6]; Table III, 100 μg/mL) was 0, the P24 % ([6]; Table III, 100 μg/mL) was 0.3% and the ED50 [7] was 4.6 µg/mL.
